According to patent US20060069132A1, “Azolecarboxamide herbicides” (priority 2004, published 2006):

Experiments:
[1] = system: blackgrass; experiment: Test B postemergence herbicide test; assay type: in vivo, Alopecurus myosuroides
Outline: (§1)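 After treating 2-leaf paddy plants or 2–18 cm postemergence plants (1 to 4 leaves) with formulated chemical, researchers kept them in a greenhouse for 13–15 days. Effects were judged visually versus controls: 0 indicates none, 100 total control.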

[2] = system: ducksalad; experiment: Test B flooded paddy test; assay type: in vivo, Heteranthera limosa; settings: 1000 g ai/ha, scale 0 to 100 (0 no effect, 100 complete control)
Outline: as §1

[3] = system: woolly cupgrass; experiment: Test C pre-/postemergence herbicide test; assay type: in vivo, Eriochloa villosa
From the text: (§2) Seeds of plant species selected from bermudagrass (Cynodon dactylon (L.) Pers.), Surinam grass (Urochloa decumbens (Staph) R. D. Webster, previously named Brachiaria decumbens Stapf), cocklebur (Xanthium strumarium L.), corn (Zea mays L.), large crabgrass (Digitaria sanguinalis (L.) Scop.), woolly cupgrass (Eriochloa villosa (Thunb.) Kunth), giant foxtail (Setaria faberi Herrm.), goosegrass (Eleusine indica (L.) Gaertn.), johnsongrass (Sorghum halepense (L.) Pers.), kochia (Kochia scoparia (L.) Schrad.), lambsquarters (Chenopodium album L.), morningglory (Ipomoea coccinea L.), eastern black nightshade (Solanum ptycanthum Dunal), yellow nutsedge (Cyperus esculentus L.), pigweed (Amaranthus retroflexus L.), common ragweed (Ambrosia elatior L.), soybean (Glycine max (L.) Merr.), common (oilseed) sunflower (Helianthus annuus L.) and velvetleaf (Abutilon theophrasti Medik.) were planted and treated preemergence with test chemicals formulated in a non-phytotoxic solvent mixture which included a surfactant.
(§3) At the same time, plants selected from these crop and weed species and also winter barley (Hordeum vulgare L.), blackgrass (Alopecurus myosuroides Huds.), canarygrass (Phalaris minor Retz.), chickweed (Stellaria media (L.) Vill.), downy bromegrass (Bromus tectorum L.), green foxtail (Setaria viridis (L.) Beauv.), Italian ryegrass (Lolium multiflorum Lam.), wheat (Triticum aestivum L.), wild oat (Avenafatua L.) and windgrass (Apera spica-venti (L.) Beauv.) were treated with postemergence applications of some of the test chemicals formulated in the same manner. Plants ranged in height from 2 to 18 cm (1- to 4-leaf stage) for postemergence treatments. Plant species in the flooded paddy test consisted of rice (Oryza sativa), smallflower umbrella sedge (Cyperus difformis L.), ducksalad (Heteranthera limosa (Sw.) Willd.) and barnyardgrass (Echinochloa crus-galli (L.) Beauv.) grown to the 2-leaf stage for testing. Treated plants and controls were maintained in a greenhouse for 12 to 14 days, after which time all species were compared to controls and visually evaluated. Plant response ratings, summarized in Table C, are based on a scale of 0 to 100 where 0 is no effect and 100 is complete control. A dash (-) response means no test result.

[4] = system: ducksalad; experiment: Test C flooded paddy test; assay type: in vivo, Heteranthera limosa
[5] = system: barnyardgrass; experiment: Test A pre-/postemergence herbicide test; assay type: in vivo, Echinochloa crus-galli
Outline: (§4)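 Visual injury scores on a 0–100 scale (100 = complete control) taken about ten days post-treatment in greenhouse against untreated controls; dash means no result. Treatments: preemergence soil spray and postemergence spray to runoff on one- to two-leaf plants 2 to 10 cm tall, surfactant-containing formulation.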

[6] = system: large crabgrass; experiment: Test A pre-/postemergence herbicide test; assay type: in vivo, Digitaria sanguinalis
Outline: as §4

[7] = system: giant foxtail; experiment: Test A pre-/postemergence herbicide test; assay type: in vivo, Setaria faberi
Outline: as §4

[8] = system: cocklebur; experiment: Test C pre-/postemergence herbicide test; assay type: in vivo, Xanthium strumarium
From the text: as §2, §3

[9] = system: corn; experiment: Test C pre-/postemergence herbicide test; assay type: in vivo, Zea mays
From the text: as §2, §3

[10] = system: common (oilseed) sunflower; experiment: Test C pre-/postemergence herbicide test; assay type: in vivo, Helianthus annuus; settings: preemergence
From the text: as §2, §3

[11] = 125 g ai/ha; visual rating, scale 0 (no effect) to 100 (complete control); postemergence
[12] = postemergence, 500 g ai/ha; scale 0 to 100, 0 is no effect, 100 is complete control
[13] = 62 g ai/ha, preemergence, scale 0 to 100
[14] = 250 g ai/ha, scale 0-100, preemergence
[15] = Postemergence, 500 g ai/ha, 0 to 100 scale, 0 no effect, 100 complete control
[16] = Postemergence, 2000 g ai/ha, 0 to 100 scale, 0 no effect, 100 complete control
[17] = Preemergence, 500 g ai/ha, visual rating, 0 to 100 scale (0 no effect, 100 complete control)
[18] = Preemergence, 2000 g ai/ha, 0 to 100 scale, 0 no effect, 100 complete control
[19] = Postemergence, 500 g ai/ha, scale 0 to 100
[20] = Postemergence, 250 g ai/ha, scale 0 to 100, 0 no effect, 100 complete control
[21] = postemergence, 125 g ai/ha, scale 0 to 100
[22] = postemergence, 62 g ai/ha, scale 0 to 100

CCc1nn(C(C)(C)C)nc1C(=O)Nc1cccc(C(=O)N(C)CC)c1 [Compound 384]
Blackgrass plant response rating [1, 11]: 20
Blackgrass plant response rating [1, 12]: 50
Ducksalad plant response rating [2]: 80
Plant response rating, Cupgrass, Woolly [3, 13]: 55
Plant response rating (0 = no effect, 100 = complete control), Cupgrass, Woolly ([3]; 125 g ai/ha, preemergence): 75
Plant response rating, Cupgrass, Woolly [3, 14]: 95
Ducksalad plant response rating ([4]; 62 g ai/ha, scale 0 to 100): 80
Ducksalad plant response rating ([4]; 125 g ai/ha, scale 0 to 100 (0 no effect, 100 complete control)): 80
Ducksalad plant response rating ([4]; 250 g ai/ha, scale of 0 to 100, 0 is no effect, 100 is complete control): 80
Plant response rating, Ducksalad ([4]; 500 g ai/ha, visual rating after 12 to 14 days, scale 0 to 100 (0 no effect, 100 complete control)): 85

CCCCOC(=O)c1cccc(NC(=O)c2cc(C(C)(C)C)nn2CC)c1 [Compound 86]
Barnyardgrass plant response rating [5, 15]: 20
Plant response rating, Barnyardgrass [5, 16]: 20
Barnyardgrass plant response rating [5, 17]: 0
Barnyardgrass plant response rating [5, 18]: 0
Crabgrass, Large plant response rating [6, 15]: 20
Plant response rating, Crabgrass, Large [6, 16]: 25
Crabgrass, Large plant response rating [6, 17]: 0
Crabgrass, Large plant response rating [6, 18]: 0
Foxtail, Giant plant response rating [7, 15]: 20
Plant response rating, Foxtail, Giant [7, 16]: 20
Foxtail, Giant plant response rating [7, 17]: 0
Foxtail, Giant plant response rating [7, 18]: 0
Plant response rating, Blackgrass ([1]; Postemergence, 500 g ai/ha; visual rating after 13 to 15 days, scale 0 (no effect) to 100 (complete control)): 20
Blackgrass plant response rating ([1]; postemergence, 125 g ai/ha; visual rating, scale 0 (no effect) to 100 (complete control)): 10
Ducksalad plant response rating ([2]; visual rating, 13 to 15 days): 20
Cocklebur plant response rating [8, 19]: 100
Plant response rating, Cocklebur [8, 20]: 100
Plant response rating, Cocklebur [8, 21]: 95
Plant response rating, Cocklebur [8, 22]: 85
Corn plant response rating [9, 19]: 30
Plant response rating, Corn [9, 20]: 20
Plant response rating, Corn [9, 21]: 20
Plant response rating, Corn [9, 22]: 15
Cupgrass, Woolly plant response rating [3, 19]: 85
Plant response rating, Cupgrass, Woolly [3, 20]: 80
Plant response rating, Cupgrass, Woolly [3, 21]: 70
Plant response rating, Cupgrass, Woolly [3, 22]: 50

CCOC(=O)c1cccc(NC(=O)c2nn(C(C)(C)CC)nc2CC)c1 [Compound 375]
Blackgrass plant response rating [1, 11]: 30
Blackgrass plant response rating [1, 12]: 40
Ducksalad plant response rating [2]: 20
Plant response rating, Cocklebur [8, 13]: 0
Plant response rating (0 = no effect, 100 = complete control), Cocklebur ([8]; 125 g ai/ha, preemergence): 0
Plant response rating, Cocklebur [8, 14]: 0
Plant response rating, Cocklebur [8, 20]: 15
Plant response rating, Cocklebur [8, 21]: 10
Plant response rating, Cocklebur ([8]; postemergence, 31 g ai/ha, scale 0 to 100): 0
Plant response rating, Cocklebur [8, 22]: 10
Plant response rating, Corn [9, 13]: 0
Plant response rating (0 = no effect, 100 = complete control), Corn ([9]; 125 g ai/ha, preemergence): 5
Plant response rating, Corn [9, 14]: 5
Plant response rating, Corn [9, 20]: 20
Plant response rating, Corn [9, 21]: 15
Plant response rating, Corn [9, 22]: 10
Plant response rating, Cupgrass, Woolly [3, 13]: 60
Plant response rating (0 = no effect, 100 = complete control), Cupgrass, Woolly ([3]; 125 g ai/ha, preemergence): 70
Plant response rating, Cupgrass, Woolly [3, 14]: 70
Plant response rating, Cupgrass, Woolly [3, 20]: 45
Plant response rating, Cupgrass, Woolly [3, 21]: 30
Plant response rating, Cupgrass, Woolly [3, 22]: 30
Plant response rating, Sunflower ([10]; 62 g ai/ha, scale 0 to 100): 0
Plant response rating (0 = no effect, 100 = complete control), Sunflower ([10]; 125 g ai/ha): 0
Plant response rating, Sunflower ([10]; 250 g ai/ha, scale 0-100): 0
